Results on 29 compounds are retold here after patent US10647675B2 (priority 2015, dated 2020).

In brackets after ≈: the same amount, converted by molar mass.

Experiment [1] relates to Trichophyton rubrum KD-1130. The experiment can be described thus: Antifungal activity evaluation test: minimum inhibitory concentration (MIC), broth dilution by reference to CLSI M38-A2. Particulars: KD1130, read-out: MIC (T. rubrum). The experiment is classed as cell-based. Put shortly: (§1)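 Broth microdilution after CLSI M38-A2: 2-fold DMSO dilution series in MOPS-buffered RPMI 1640 pH 7.0, inoculum 2×10^3 cells/mL final. Incubated 35° C for 4 days; MIC (μg/mL) is lowest concentration giving visually ≥80% growth inhibition versus growth control.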

Experiment [2] deals with Trichophyton mentagrophytes SM-110. The description is as above. The experiment is classed as cell-based. Particulars: SM110, read-out: MIC (T. menta.). A digest of the protocol: as §1

As to `COc1c(Cl)cncc1-c1cncnc1Oc1ccc(C(F)(F)F)cc1` [I-331, 5-(5-chloro-4-methoxypyridin-3-yl)-4-[4-(trifluoromethyl)phenoxy]pyrimidine], the MIC in experiment [1] and in experiment [2] was at most 0.1 µg/mL each time.
Take `FC(F)(F)c1ccc(Oc2ncncc2-c2cccc3ccnn23)cc1` [I-332, 7-{4-[4-(trifluoromethyl)phenoxy]pyrimidin-5-yl}pyrazolo[1,5-a]pyridine]: the MIC in experiment [1] and in experiment [2] was at most 0.1 µg/mL throughout.
As for `CC(F)(F)c1ccc(Oc2ncncc2-c2cccc3ccnn23)cc1` [I-333, 7-{4-[4-(1,1-difluoroethyl)phenoxy]pyrimidin-5-yl}pyrazolo[1,5-a]pyridine], the MIC in experiment [1] and in experiment [2] was at most 0.1 µg/mL each time.
As for `COc1cc(-c2cncnc2Oc2ccc(C(C)(F)F)nc2)c(F)cc1F` [I-334, 4-{[6-(1,1-difluoroethyl)pyridin-3-yl]oxy}-5-(2,4-difluoro-5-methoxyphenyl)pyrimidine], the MIC in experiment [1] and in experiment [2] was at most 0.1 µg/mL each time.
With `CC(F)(F)c1ccc(Oc2ncncc2-c2cccc3c2OCC3)cn1` [I-335, 4-{[6-(1,1-difluoroethyl)pyridin-3-yl]oxy}-5-(2,3-dihydrobenzofuran-7-yl)pyrimidine], the MIC in experiment [1] and in experiment [2] was at most 0.1 µg/mL in each case.
`COc1cc(F)c(F)cc1-c1cncnc1Oc1ccc(C(C)(F)F)nc1` [I-336, 4-{[6-(1,1-difluoroethyl)pyridin-3-yl]oxy}-5-(4,5-difluoro-2-methoxyphenyl)pyrimidine]: the MIC in experiment [1] and in experiment [2] was at most 0.1 µg/mL throughout.
As to `COc1ccccc1-c1cccnc1Oc1cnc(Cl)nc1` [I-338, 2-chloro-5-{[3-(2-methoxyphenyl)pyridin-2-yl]oxy}pyrimidine], the MIC in experiment [1] and in experiment [2] was 0.2 to 0.78 µg/mL (≈ 0.637 to 2.49 µM) each time.
Take `COc1ccccc1-c1cccnc1Oc1cnc(N(C)Cc2ccccc2)nc1` [I-339, N-benzyl-5-{[3-(2-methoxyphenyl)pyridin-2-yl]oxy}-N-methylpyrimidin-2-amine]: the minimal inhibitory concentration (MIC) in experiment [1] and in experiment [2] was at most 0.1 µg/mL in each case.
Turning to `CCN(C)c1ncc(Oc2ncccc2-c2cccc3c2OCC3)cn1` [I-340, 5-{[3-(2,3-dihydrobenzofuran-7-yl)pyridin-2-yl]oxy}-N-ethyl-N-methylpyrimidin-2-amine], the MIC in experiment [1] and in experiment [2] was at most 0.1 µg/mL in each case.
As to `Cc1nn(C)c(C)c1-c1cccnc1Oc1ccc(C(F)(F)F)cc1` [I-341, 2-[4-(trifluoromethyl)phenoxy]-3-(1,3,5-trimethyl-1H-pyrazol-4-yl)pyridine], the MIC in experiment [1] was at most 0.1 µg/mL; in experiment [2] it was 0.2 to 0.78 µg/mL (≈ 0.576 to 2.25 µM).
The corresponding values for `Cc1nc(C)c(-c2cccnc2Oc2ccc(C(F)(F)F)cc2)s1` [I-342] are 0.2 to 0.78 µg/mL (≈ 0.571 to 2.23 µM) and 0.2 to 0.78 µg/mL (≈ 0.571 to 2.23 µM).
Turning to `COCC(F)(F)c1ccc(Oc2ncccc2-c2cccc3ncnn23)cn1` [I-343, 5-(2-{[6-(1,1-difluoro-2-methoxyethyl)pyridin-3-yl]oxy}pyridin-3-yl)-[1,2,4]triazolo[1,5-a]pyridine], the MIC in experiment [1] and in experiment [2] was 0.2 to 0.78 µg/mL (≈ 0.522 to 2.03 µM) throughout.
Take `CCOC(=O)CN(C)c1ccc(Oc2ncccc2-c2ccccc2OC)cn1` [I-344, ethyl 2-[(5-{[3-(2-methoxyphenyl)pyridin-2-yl]oxy}pyridin-2-yl)(methyl)amino]acetate]: the MIC in experiment [1] and in experiment [2] was at most 0.1 µg/mL each time.
Consider `COc1ccccc1-c1cccnc1Oc1ccc2c(c1)CCC2` [I-345, 2-[(2,3-dihydro-1H-inden-5-yl)oxy]-3-(2-methoxyphenyl)pyridine], for which the MIC in experiment [1] and in experiment [2] was at most 0.1 µg/mL in each case.
With `Cc1nn(C)c(C)c1-c1cccnc1Oc1ccc(C(F)(F)F)nc1` [I-346, 2-{[6-(trifluoromethyl)pyridin-3-yl]oxy}-3-(1,3,5-trimethyl-1H-pyrazol-4-yl)pyridine], the MIC in experiment [1] and in experiment [2] was 1.56 to 6.25 µg/mL (≈ 4.48 to 17.9 µM) throughout.
Regarding `COc1ncccc1-c1cccnc1Oc1ccc(C(F)(F)CO)nc1` [I-347], the MIC in experiment [1] and in experiment [2] was 1.56 to 6.25 µg/mL (≈ 4.34 to 17.4 µM) each time.
`COCC(F)(F)c1ccc(Oc2ncccc2-c2cccnc2OC)cn1` [I-348, 2-{[6-(1,1-difluoro-2-methoxyethyl)pyridin-3-yl]oxy}-2′-methoxy-3,3′-bipyridine]: the MIC in experiment [1] and in experiment [2] was 0.2 to 0.78 µg/mL (≈ 0.536 to 2.09 µM) in each case.
With `COCC(F)(F)c1ccc(Oc2ncccc2-c2cnccc2OC)cn1` [I-349, 2-{[6-(1,1-difluoro-2-methoxyethyl)pyridin-3-yl]oxy}-4′-methoxy-3,3′-bipyridine], the MIC in experiment [1] and in experiment [2] was 1.56 to 6.25 µg/mL (≈ 4.18 to 16.7 µM) throughout.
On to `COc1ccccc1-c1cccnc1Oc1ccc(C(F)(F)Cn2cccn2)nc1` [I-350, 2-({6-[1,1-difluoro-2-(1H-pyrazol-1-yl)ethyl]pyridin-3-yl}oxy)-3-(2-methoxyphenyl)pyridine], for which the MIC in experiment [1] and in experiment [2] was at most 0.1 µg/mL each time.
Regarding `COc1ccccc1-c1cccnc1Oc1ccc(C(F)(F)Cn2ccnc2)nc1` [I-351, 2-({6-[1,1-difluoro-2-(1H-imidazol-1-yl)ethyl]pyridin-3-yl}oxy)-3-(2-methoxyphenyl)pyridine], the MIC in experiment [1] and in experiment [2] was 0.2 to 0.78 µg/mL (≈ 0.49 to 1.91 µM) throughout.
For the compound `COc1ncccc1-c1cccnc1Oc1cnc(I)nc1` [I-353], the MIC fell in the range of 0.2 to 0.78 µg/mL (≈ 0.492 to 1.92 µM) in experiment [1] and 1.56 to 6.25 µg/mL (≈ 3.84 to 15.4 µM) in experiment [2].
In the case of `COC(=O)CN(C)c1ncc(Oc2ncccc2-c2cccnc2OC)cn1` [I-354, methyl 2-[(5-{[2′-methoxy-(3,3′-bipyridin)-2-yl]oxy}-pyrimidin-2-yl)(methyl)amino]acetate], the figures for the MIC in experiment [1] and in experiment [2] were 0.2 to 0.78 µg/mL (≈ 0.524 to 2.05 µM) and at most 0.1 µg/mL, respectively.
`COc1c(Cl)cncc1-c1cccnc1Oc1ccc(C(F)F)cc1` [I-355, 5′-chloro-2-[4-(difluoromethyl)phenoxy]-4′-methoxy-3,3′-bipyridine]: the MIC in experiment [1] and in experiment [2] was at most 0.1 µg/mL in each case.
For the compound `COc1c(F)cncc1-c1cccnc1Oc1ccc(C(F)F)cc1` [I-356, 2-[4-(difluoromethyl)phenoxy]-5′-fluoro-4′-methoxy-3,3′-bipyridine], the MIC in experiment [1] and in experiment [2] was at most 0.1 µg/mL each time.
As for `COc1ccncc1-c1cncnc1Oc1ccc(Cl)cc1` [I-357, 4-(4-chlorophenoxy)-5-(4-methoxypyridin-3-yl)pyrimidine], the MIC in experiment [1] was 1.56 to 6.25 µg/mL (≈ 4.97 to 19.9 µM); in experiment [2], 0.2 to 0.78 µg/mL (≈ 0.637 to 2.49 µM).
Take `FC(F)c1ccc(Oc2ncncc2-c2cccc3ccnn23)cc1` [I-358, 7-{4-[4-(difluoromethyl)phenoxy]pyrimidin-5-yl)pyrazolo[1,5-a]-pyridine]: the MIC in experiment [1] and in experiment [2] was at most 0.1 µg/mL in each case.
`COc1cc(F)ccc1-c1cncnc1Oc1ccc(C(C)(F)F)nc1` [I-359, 4-{[6-(1,1-difluoroethyl)pyridin-3-yl]oxy}-5-(4-fluoro-2-methoxyphenyl)pyrimidine]: the MIC in experiment [1] and in experiment [2] was at most 0.1 µg/mL throughout.
As to `COc1ccc(F)cc1-c1cncnc1Oc1ccc(C(C)(F)F)nc1` [I-360, 4-{[6-(1,1-difluoroethyl)pyridin-3-yl]oxy}-5-(5-fluoro-2-methoxyphenyl)pyrimidine], the MIC in experiment [1] and in experiment [2] was at most 0.1 µg/mL in each case.
With `COCC(F)(F)c1ccc(Oc2ncncc2-c2cccnc2OC)cn1` [I-361, 4-{[6-(1,1-difluoro-2-methoxyethyl)pyridin-3-yl]oxy}-5-(2-methoxypyridin-3-yl)pyrimidine], the MIC in experiment [1] and in experiment [2] was 0.2 to 0.78 µg/mL (≈ 0.534 to 2.08 µM) in each case.
